PMC7794217, “A bi-specific lectin from the mushroom Boletopsis grisea and its application in glycoanalytical workflows” (Scientific Reports, 2021)

Key:
Assay in all cases: SPR (Biacore […]), equilibrium fit to […] model
Type in all cases: binding
[1] = target: T1, BGL (Boletopsis grisea lectin), S48K mutant (Boletopsis grisea, UniProt A0A1L2F5J1, S48K)
T1 construct: full-length BGL ORF expressed in E. coli

[2] = target: T2, BGL (Boletopsis grisea lectin), H71E mutant (Boletopsis grisea, UniProt A0A1L2F5J1, H71E)
T2 construct: full-length BGL ORF expressed in E. coli

[3] = target: T3, BGL (Boletopsis grisea lectin), G49N mutant (Boletopsis grisea, UniProt A0A1L2F5J1, G49N)
T3 construct: full-length BGL ORF expressed in E. coli

[4] = target: T4, BGL (Boletopsis grisea lectin), recombinant wild-type rBGL (Boletopsis grisea, UniProt A0A1L2F5J1)
T4 construct: full-length 143 amino acid ORF (GenBank KT315924), expressed in E. coli, lacking N-terminal Met
T4 sequence (A0A1L2F5J1 2-143): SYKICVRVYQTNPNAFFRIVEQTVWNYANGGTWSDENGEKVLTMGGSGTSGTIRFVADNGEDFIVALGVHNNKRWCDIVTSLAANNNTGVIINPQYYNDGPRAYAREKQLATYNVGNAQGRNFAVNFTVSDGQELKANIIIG

T2 sequence (A0A1L2F5J1 entry or part of it H71E): as the sequence (A0A1L2F5J1 2-143) above
T3 sequence (A0A1L2F5J1 entry or part of it G49N): as the sequence (A0A1L2F5J1 2-143) above
T1 sequence (A0A1L2F5J1 entry or part of it S48K): as the sequence (A0A1L2F5J1 2-143) above

CC(=O)N[C@H]1C(O)O[C@H](CO)[C@@H](O)[C@@H]1O (stereo partly shown) [GlcNAc]
Kd [1]: 1.01 ± 0.02 mM | Kd [2]: 2.33 ± 0.08 mM | Kd [3]: 0.91 ± 0.01 mM | Kd [4]: 1.086 ± 0.008 mM
